Patent US6790869B2, “Resveratrol analogs for prevention of disease” (Rutgers, The State University of New Jersey, priority 1999, dated 2004)
Where two headings read alike, the source gives them in different places.

How the values were obtained:
[1] = test system: human glyceraldehyde-3-phosphate dehydrogenase (HG3PDH) expression; assay: Targeted gene assay by RT-PCR; type: cell-based; conditions: W138 and W138VA cells, serum-stimulated from G0
Protocol: (§1) Targeted gene assay was then performed using RT-PCR. Both normal (W138) and cancerous (W138VA) cells at resting phase (G0) were treated with 10-15% fetal bovine serum to initiate growth stimulation. Cells were then harvested at various time points during cell cycle progression. Total RNA was prepared from these cells according to standard RT-PCR methods. Paired gene specific primers were prepared and used including human glyceraldehyde-3-phosphate dehydrogenase HG3PDH), c-fos, c-myc, ornithine decarboxylase (ODC), proliferating cell nuclear antigen (PCNA), thymidine kinase (TK), cyclooxygenase 2 (COX2), BRCA1, BRCA2, p53, APC, MCC, pRb, cyclooxygenase 1 (COX1), bc12, and Bax. […] Expression of c-fos and c-myc, an early G1 event in normal W138 cells, were both deregulated in transformed W138VA cells. […] Similarly, treatment of cells, both normal and transformed, with either resveratrol or MR-3 had no effect on expression of ODC, PCNA, or TK genes (all cell cycle dependent genes).

c-fos expression = assay: Targeted gene assay by RT-PCR; type: cell-based, human; conditions: W138 and W138VA cells, serum-stimulated from G0
Protocol: as §1

[2] = test system: proliferating cell nuclear antigen (PCNA) gene expression; assay: Targeted gene assay by RT-PCR; type: cell-based, human; conditions: both normal and transformed cells
Protocol: as §1

[3] = test system: ornithine decarboxylase (ODC) gene expression; assay: Targeted gene assay by RT-PCR; type: cell-based, human; conditions: both normal and transformed cells
Protocol: as §1

[4] = test system: thymidine kinase (TK) gene expression; assay: Targeted gene assay by RT-PCR; type: cell-based, human; conditions: both normal and transformed cells
Protocol: as §1

c-myc expression = assay: Targeted gene assay by RT-PCR; type: cell-based, human; conditions: W138 and W138VA cells, serum-stimulated from G0
Protocol: as §1

[5] = test system: SV40-transformed W138 cells (W138VA); assay: Cell proliferation assay, viable cells counted by trypan blue dye exclusion; type: cell-based, human; design: key to Growth Rate in Cells Following Exposure to Resveratrol Analogs, W138VA Cells: +: >60% growth inhibition; —: no effect or only slight inhibition observed; conditions: for Growth Rate in Cells Following Exposure to Resveratrol Analogs, W138VA Cells: at the concentration in parentheses after the analog, 5 days in culture
Protocol: (§2) Initial tests examined the potential cancer preventive activity of the analogs. Resveratrol and its analogs were evaluated in W138 and SV40 transformed W138VA cells and in preneoplastic 184-B5/HER and neoplastic SK-BR-3 human mammary epithelial cells. Cell proliferation, apoptosis, and gene expression studies were conducted using standard methodologies.
(§3) W138 human diploid fibroblasts and cancerous SV40-transformed W138 cells (W138VA) were used in a cell proliferation assay. Growth rate and viability of these cells was determined following addition of each analog. Doses tested ranged from 50 ng to 300 μg per ml or 1 μM to 100 μM concentrations in culture media. Cell cultures were grown for 5 days in the presence of the various doses of analogs. Growth rate was measured by counting viable cells using the trypan blue dye exclusion method. Resveratrol inhibited cell growth at low concentrations, less than 10 μM. […] MR-1 was not active as an inhibitor of cell growth even at doses as high as 100 μM.

184-B5/HER cells [6] = assay: Anchorage-dependent colony formation assay; type: cell-based; conditions: Homo sapiens
From the text: Cell colony formation was also examined in 184-B5/HER cells. […] Resveratrol, MR-0 and MR-2 produced approximately 25-40% inhibition in the anchorage-dependent colony formation assay. MR-3, however, produced almost a 80% inhibition of colony formation.

[7] = test system: W138 human diploid fibroblasts; assay: Cell proliferation assay, viable cells counted by trypan blue dye exclusion; type: cell-based; design: key to Growth Rate in Cells Following Exposure to Resveratrol Analogs, W138 Cells: +: >60% growth inhibition; —: no effect or only slight inhibition observed; conditions: for Growth Rate in Cells Following Exposure to Resveratrol Analogs, W138 Cells: at the concentration in parentheses after the analog, 5 days in culture
Protocol: as §2, §3

184-B5/HER cells [8] = assay: Growth inhibition in 184-B5/HER cells; type: cell-based; conditions: Homo sapiens
Protocol: as §2
(§4) Resveratrol and its analogs were also tested in 184-B5/HER cells.

W138 and W138VA cells = assay: Cell proliferation assay, result not separated by cell line; type: cell-based, human; conditions: for effective concentration for growth inhibition: value in parentheses in Table 1, W138 / W138VA cells, 5 days
Protocol: as §2, §3

W138 cells = assay: Morphological changes in cells; type: cell-based, human; conditions: normal W138 cells
From the text: (§5) In addition to inhibition of cell growth, treatment of W138 and W138VA cells with analogs led to morphological changes in the cells. Treatment of W138 cells with resveratrol and its analogs R-1 and R-3 led to elongation of normal W138 cells. Methoxy analogs such as MR-0 and MR-3 caused the flattening of W138 cells.

BRCA2 gene expression = assay: Targeted gene assay by RT-PCR; type: cell-based, human; conditions: for effect on expression of BRCA2 gene: human cells, all time points examined
Protocol: as §1
(§6) Both BRCA1 and BRCA2 are breast cancer genes that together appear to be responsible for more than 60% of total hereditary breast cancers. Therefore, resveratrol and its analogs appear to modulate the breast cancer genes.

BRCA1 gene expression = assay: Targeted gene assay by RT-PCR; type: cell-based, human; conditions: for effect on expression of BRCA1 gene: human cells, all time points examined
Protocol: as §1, §6

184-B5/HER cells [9] = assay: Apoptosis assay, fluorescent labeling of fragmented DNA; type: cell-based, human
From the text: The effect of the analogs on apoptosis was also examined. Apoptosis is characterized by nuclear DNA fragmentation that is mediated through a variety of signal transduction pathways. An assay was used that relies on fluorescent labeling of fragmented DNA.

[10] = test system: cyclooxygenase 2 (COX2) expression; assay: Targeted gene assay by RT-PCR; type: cell-based, human
Protocol: as §1

184-B5/HER cells [11] = assay: Cell cycle analysis; type: cell-based, human
Protocol: as §4

[12] = test system: oncogene expression preneoplastic breast epithelial cells; assay: In vivo tumor inhibition in an orthotransplant model; conditions: mice, AIN-76A diet with 400 ppm
Protocol: The in vivo tumor inhibitory effects of MR-3 were tested in an orthotransplant model. Mice were transplanted with an oncogene expression preneoplastic breast epithelial cells. Mice were then divided into groups with the control group fed AIN-76A diet alone. Another group of mice was fed AIN-76A diet supplemented with 400 ppm MR-3.

[13] = test system: neutral β-galactosidase activity in W138 cells; assay: Neutral β-galactosidase staining (senescence marker); type: cell-based, human; conditions: accompanying flattening
From the text: as §5

[14] = 184-B5/HER cells, continuous treatment with 4 μM, read-out: inhibition of colony formation
[15] = read-out: concentration that inhibited growth by 50% (IC50), 184-B5/HER cells

Compound: Oc1ccc(C=Cc2cc(O)cc(O)c2)cc1 [Resveratrol, 3,4′,5-trihydroxystilbene]
- effect on expression of HG3PDH [1]: did not affect the expression
- effect on expression of c-fos (c-fos expression): did not significantly affect the expression
- effect on expression of PCNA gene [2]: no effect
- effect on expression of ODC gene [3]: no effect
- effect on expression of TK gene [4]: no effect
- effect on expression of c-myc (c-myc expression): did not significantly affect the expression
- Growth Rate in Cells Following Exposure to Resveratrol Analogs, W138VA Cells [5]: + (>60% growth inhibition)
- inhibition at 4 µM (184-B5/HER cells [6]; [14]): 25 to 40%
- Growth Rate in Cells Following Exposure to Resveratrol Analogs, W138 Cells [7]: +^2 (>60% growth inhibition)
- IC50 (184-B5/HER cells [8]; [15]): 10.5 µM
- concentration at which cell growth was inhibited (W138 and W138VA cells; 5 days in culture): less than 10 μM
- effective concentration for growth inhibition (W138 and W138VA cells): R0 (10 μM)^1
- morphological change of cells (W138 cells): elongation
- effect on expression of BRCA2 gene (BRCA2 gene expression): completely abolished expression
- effect on expression of BRCA1 gene (BRCA1 gene expression): completely abolished expression
- induction of apoptosis versus solvent-treated control cells (184-B5/HER cells [9]): induced apoptosis to a significantly greater extent than solvent-treated control cells

Compound: COc1cc(C=Cc2cc(OC)c(OC)c(OC)c2)cc(OC)c1 [MR-5, 3,3′,4,5,5′-pentamethoxystilbene]
- Growth Rate in Cells Following Exposure to Resveratrol Analogs, W138VA Cells [5]: + (>60% growth inhibition)
- Growth Rate in Cells Following Exposure to Resveratrol Analogs, W138 Cells [7]: + (>60% growth inhibition)
- effective concentration for growth inhibition (W138 and W138VA cells): MR5 (100 μM)

Compound: COc1cc(C=Cc2cc(OC)cc(OC)c2)cc(OC)c1 [MR-4, 3,3′,5′5′-tetramethoxystilbene]
- inhibition of growth ([5]; W138VA cells, 100 μM): not W138VA cells
- Growth Rate in Cells Following Exposure to Resveratrol Analogs, W138VA Cells [5]: —
- inhibition of growth ([7]; W138 cells, 100 μM): inhibited growth
- Growth Rate in Cells Following Exposure to Resveratrol Analogs, W138 Cells [7]: + (>60% growth inhibition)
- effective concentration for growth inhibition (W138 and W138VA cells): MR4 (100 μM)

Compound: COc1ccc(C=Cc2cc(OC)c(OC)c(OC)c2)cc1 [MR-3, 3,4,4′,5-tetramethoxystilbene]
- effect on expression of HG3PDH [1]: did not affect the expression
- effect on expression of c-fos (c-fos expression): did not significantly affect the expression
- effect on expression of PCNA gene [2]: no effect
- effect on expression of ODC gene [3]: no effect
- effect on expression of TK gene [4]: no effect
- effect on expression of c-myc (c-myc expression): did not significantly affect the expression
- effect on expression of COX2 ([10]; W138VA cells): stimulated the expression
- effect on expression of COX2 ([10]; W138 cells): not in W138 cells
- effect on proliferation ([5]; W138VA cells, 1 μM): completely blocked proliferation
- Growth Rate in Cells Following Exposure to Resveratrol Analogs, W138VA Cells [5]: + (>60% growth inhibition)
- inhibition at 4 µM (184-B5/HER cells [6]; 184B5, read-out: inhibition of colony formation): ~80%
- cell cycle effect relative to solvent-treated control cultures (184-B5/HER cells [11]): progressive arrest of cell in the G2/M phase
- rank in cell cycle arrest (184-B5/HER cells [11]): most effective compound
- effect on growth ([7]; W138 cells, 1 μM): no effect
- Growth Rate in Cells Following Exposure to Resveratrol Analogs, W138 Cells [7]: —
- IC50 (184-B5/HER cells [8]; 184B5, read-out: concentration that inhibited growth by 50% (IC50)): 1 µM
- weight gains compared with control group ([12]; 12 weeks): comparable
- tumor incidence ([12]; 12 weeks continuous feeding, control group 100%): 20%
- rank in inhibiting cell growth among the methylated analogs (W138 and W138VA cells): most effective
- effective concentration for growth inhibition (W138 and W138VA cells): MR3 (1 μM)
- morphological change of cells (W138 cells): flattening
- potency in inhibiting expression of BRCA2 compared with resveratrol (BRCA2 gene expression; at equal doses): more potent than resveratrol
- effect on expression of BRCA2 gene (BRCA2 gene expression): completely abolished expression
- potency in inhibiting expression of BRCA1 compared with resveratrol (BRCA1 gene expression; at equal doses): more potent than resveratrol
- effect on expression of BRCA1 gene (BRCA1 gene expression): completely abolished expression
- induction of apoptosis versus solvent-treated control cells (184-B5/HER cells [9]): no effect
- neutral β-galactosidase activity (staining) [13]: increase in neutral β-galactosidase activity

Compound: COc1cc(C=Cc2ccc(OC)c(OC)c2)cc(OC)c1 [MR-2, 3,3′,4,5′-tetramethoxystilbene]
- inhibition at 4 µM (184-B5/HER cells [6]; [14]): 25 to 40%
- cell cycle effect relative to solvent-treated control cultures (184-B5/HER cells [11]): progressive arrest of cell in the G2/M phase
- IC50 (184-B5/HER cells [8]; [15]): 120 µM
- induction of apoptosis versus solvent-treated control cells (184-B5/HER cells [9]): induced apoptosis to a significantly greater extent than solvent-treated control cells

Compound: COc1ccc(C=Cc2cc(OC)cc(OC)c2)cc1 [MR-0, 3,4′,5-trimethoxystilbene]
- ability to inhibit cell growth compared with resveratrol ([5]; W138VA cells): did not significantly affect
- Growth Rate in Cells Following Exposure to Resveratrol Analogs, W138VA Cells [5]: + (>60% growth inhibition)
- inhibition at 4 µM (184-B5/HER cells [6]; [14]): 25 to 40%
- cell cycle effect relative to solvent-treated control cultures (184-B5/HER cells [11]): progressive arrest of cell in the G2/M phase
- ability to inhibit cell growth compared with resveratrol ([7]; W138 cells): less effective than resveratrol
- Growth Rate in Cells Following Exposure to Resveratrol Analogs, W138 Cells [7]: + (>60% growth inhibition)
- IC50 (184-B5/HER cells [8]; [15]): 10.5 µM
- effective concentration for growth inhibition (W138 and W138VA cells): MR0 (100 μM)
- morphological change of cells (W138 cells): flattening
- induction of apoptosis versus solvent-treated control cells (184-B5/HER cells [9]): induced apoptosis to a significantly greater extent than solvent-treated control cells
- neutral β-galactosidase activity (staining) [13]: increase in neutral β-galactosidase activity

Compound: Oc1cc(O)cc(C=Cc2ccccc2)c1 [Analog R-1, 3,5-dihydroxystilbene]
- morphological change of cells (W138 cells): elongation

Compound: COc1cc(C=Cc2ccccc2)cc(OC)c1 [MR-1, 3,5-dimethoxystilbene]
- Growth Rate in Cells Following Exposure to Resveratrol Analogs, W138VA Cells [5]: —
- Growth Rate in Cells Following Exposure to Resveratrol Analogs, W138 Cells [7]: —^4
- activity as an inhibitor of cell growth (W138 and W138VA cells; doses as high as 100 μM): not active
- effective concentration for growth inhibition (W138 and W138VA cells): MR1 (100 μM)
